{
  "source": "patent US7790698B2",
  "about": "“Use of adenosine receptor agonists in therapy” (Cambridge Biotechnology Ltd, priority 2003, dated 2010)",
  "key": {"[1]": {"system": "carrageenan (CGN) induced inflammation", "assay": "carrageenan induced inflammation, paw volume by plethysomometry (Example 1, FIG. 1)", "assay_type": "in vivo", "procedure": "Carrageenan (2%, 10 microlitres) was administered into the right hind paw, and the paw volume assessed by plethysomometry. 2-methoxyadenosine was administered at the same time as carrageenan. 2-methoxyadenosine was as effective as indomethacin (Indo, 3 mg/kg p.o.)."}, "[2]": {"system": "blood pressure and heart rate", "assay": "radiotelemetry of blood pressure and heart rate (Example 2, FIG. 2)", "assay_type": "in vivo, rat", "settings": "0.6 mg/kg p.o., rats", "procedure": "FIG. 2: An implantable radiotelemetry device was placed in the abdominal cavity of 6 rats per group. The pressure catheter of the device was inserted in the abdominal aorta and two electrodes tunnelised under the skin in a lead II position (left side of abdominal cavity/right shoulder). Individual rats were placed in their own cage on a radioreceptor (DSI) for data acquisition. The effect of 0.6 mg/kg 2-methoxyadenosine or vehicle (p.o.) on blood pressure was then assessed. A: blood pressure; B: heart rate."}, "[3]": {"assay": "plasma concentration over time after administration (Example 3, FIG. 3)", "assay_type": "in vivo, rat", "procedure": "The EC50 value of 2-methoxyadenosine at the adenosine A2A receptor is 900 ng/ml (3 μM). […] It can be seen that the plasma concentration remains above 2% of the EC50 value for more than 3 hours. Anti-inflammatory effects have been observed (without blood pressure changes) when the peak and maintained plasma concentrations are as low […] (i.e. 2% of the EC50 value determined in vitro)."}, "[4]": {"system": "carageenan-induced oedema in a rat paw", "settings": "rats, 20 mg/kg po; cited from earlier work"}, "[5]": {"system": "mean blood pressure and heart rate", "settings": "rats, 20 mg/kg po; cited from earlier work"}, "adenosine A2A receptor": {"biological_target": "adenosine A2A receptor", "settings": "cited from earlier work"}},
  "data": [
    {"compound": "COc1nc(N)c2ncn([C@@H]3O[C@H](CO)[C@@H](O)[C@H]3O)c2n1", "note": "[2-methoxyadenosine]", "values": [
      {"measurement": "effect on blood pressure", "setting": "[1]; 62.4 and 624 μg/kg i.p.", "value": "without affecting blood pressure"},
      {"measurement": "inhibition of carrageenan (CGN) induced inflammation (paw volume)", "setting": "[1]; 62.4 and 624 μg/kg i.p., given at the same time as carrageenan, versus indomethacin 3 mg/kg po", "value": "comparable efficacy to indomethacin"},
      {"measurement": "plasma concentration at which profound anti-inflammatory activity is seen", "setting": "[1]; plasma concentration", "value": "≤ 0.2", "unit": "µM"},
      {"measurement": "effect on blood pressure", "setting": "[2]", "value": "no significant effect"},
      {"measurement": "effect on heart rate", "setting": "[2]", "value": "no significant effect"},
      {"measurement": "time the plasma concentration remains above 2% of the EC50 value", "setting": "[3]; 0.6 mg/kg to a rat", "value": "more than 3 hours"},
      {"measurement": "peak and maintained plasma concentration at which anti-inflammatory effects were observed without blood pressure changes", "setting": "[3]; as low as, stated as 2% of the EC50 value", "value": 8, "unit": "ng/mL"},
      {"measurement": "effect on blood pressure when the peak plasma concentration reaches the EC50 value", "setting": "[3]; peak plasma concentration 900 ng/ml, lasts for many hours", "value": "profound reductions in blood pressure"},
      {"measurement": "inhibition of carageenan-induced inflammation", "setting": "[4]", "value": 25, "unit": "%"},
      {"measurement": "reduction in heart rate", "setting": "[5]", "value": 25, "unit": "%"},
      {"measurement": "reduction in mean blood pressure", "setting": "[5]", "value": 41, "unit": "%"},
      {"measurement": "EC50", "setting": "adenosine A2A receptor; Daly et al. 1993", "value": 3000, "unit": "nM"},
      {"measurement": "EC50 value at the adenosine A2A receptor", "setting": "adenosine A2A receptor; determined in vitro", "value": 0.9, "unit": "µg/mL"}
    ]}
  ]
}
